Laboratory results as given in ChEMBL document CHEMBL5036314, “Structure-Guided Design of the First Noncovalent Small-Molecule Inhibitor of CRM1” (J Med Chem, 2021).
Active and inactive are the calls of the source. The rule behind the calls is not given here.

Tests used:
[1] = molecular target: Exportin-1 (Saccharomyces cerevisiae) (UniProt P30822); test: Inhibition of GST-NES MVM binding to yeast CRM1 at 20 uM by pull down assay
HeLa [2] = test: Anti-cancer activity against human HeLa cells assessed as cell viability at 20 uM incubated for 2 hrs by EdU incorporation based assay; type: functional
Saccharomyces cerevisiae = test: Inhibition of NES binding to yeast CRM1-T539 mutant in absence of RanGTP at 20 uM by pull down assay
SW48 = test: Anti-cancer activity against human SW48 cells assessed as cell survival at 10 uM for 72 hrs replaced with compound containing fresh culture medium every 12 hrs by Sulforhodamine B assay; type: functional, cell-based
A2780 = test: Anti-cancer activity against human A2780 cells assessed as cell survival at 10 uM for 72 hrs replaced with compound containing fresh culture medium every 12 hrs by Sulforhodamine B assay; type: functional, cell-based
HeLa [3] = test: Anti-cancer activity against human HeLa cells assessed as cell survival at 10 uM for 72 hrs replaced with compound containing fresh culture medium every 12 hrs by Sulforhodamine B assay; type: functional, cell-based
HepG2 = test: Anti-cancer activity against human HepG2 cells assessed as cell survival at 10 uM for 72 hrs replaced with compound containing fresh culture medium every 12 hrs by Sulforhodamine B assay; type: functional, cell-based
MGC-803 = test: Anti-cancer activity against human MGC-803 cells assessed as cell survival at 10 uM for 72 hrs replaced with compound containing fresh culture medium every 12 hrs by Sulforhodamine B assay; type: functional, cell-based
A549 = test: Anti-cancer activity against human A549 cells assessed as cell survival at 10 uM for 72 hrs replaced with compound containing fresh culture medium every 12 hrs by Sulforhodamine B assay; type: functional, cell-based
HGC-27 = test: Anti-cancer activity against human HGC-27 cells assessed as cell survival at 10 uM for 72 hrs replaced with compound containing fresh culture medium every 12 hrs by Sulforhodamine B assay; type: functional, cell-based
HCT-116 = test: Anti-cancer activity against human HCT-116 cells assessed as cell survival at 10 uM for 72 hrs replaced with compound containing fresh culture medium every 12 hrs by Sulforhodamine B assay; type: functional, cell-based
PANC-1 = test: Anti-cancer activity against human PANC-1 cells assessed as cell survival at 10 uM for 72 hrs replaced with compound containing fresh culture medium every 12 hrs by Sulforhodamine B assay; type: functional, cell-based
Huh-7 = test: Anti-cancer activity against human HuH-7 cells assessed as cell survival at 10 uM for 72 hrs replaced with compound containing fresh culture medium every 12 hrs by Sulforhodamine B assay; type: functional, cell-based
HeLa [4] = test: Binding affinity to human CRM1 C528S mutant transfected HeLa cells assessed as inhibition of nuclear export of cargoes at 2 uM incubated for 12 hrs by confocal microscope analysis; type: cell-based
Exportin-1 = Exportin-1 (Homo sapiens, UniProt O14980); test: Binding affinity to wild type human CRM1 transfected HeLa cells assessed as inhibition of nuclear export of cargoes at 2 uM incubated for 12 hrs by confocal microscope analysis; type: cell-based
HeLa [5] = test: Cytotoxicity against human HeLa cells transfected with hCRM1-C528S-mutant assessed as cell viability measured for 72 hrs replaced with compound containing fresh culture medium every 12 hrs by Sulforhodamine B assay; type: functional, cell-based

Chain of Exportin-1 (O14980 whole entry): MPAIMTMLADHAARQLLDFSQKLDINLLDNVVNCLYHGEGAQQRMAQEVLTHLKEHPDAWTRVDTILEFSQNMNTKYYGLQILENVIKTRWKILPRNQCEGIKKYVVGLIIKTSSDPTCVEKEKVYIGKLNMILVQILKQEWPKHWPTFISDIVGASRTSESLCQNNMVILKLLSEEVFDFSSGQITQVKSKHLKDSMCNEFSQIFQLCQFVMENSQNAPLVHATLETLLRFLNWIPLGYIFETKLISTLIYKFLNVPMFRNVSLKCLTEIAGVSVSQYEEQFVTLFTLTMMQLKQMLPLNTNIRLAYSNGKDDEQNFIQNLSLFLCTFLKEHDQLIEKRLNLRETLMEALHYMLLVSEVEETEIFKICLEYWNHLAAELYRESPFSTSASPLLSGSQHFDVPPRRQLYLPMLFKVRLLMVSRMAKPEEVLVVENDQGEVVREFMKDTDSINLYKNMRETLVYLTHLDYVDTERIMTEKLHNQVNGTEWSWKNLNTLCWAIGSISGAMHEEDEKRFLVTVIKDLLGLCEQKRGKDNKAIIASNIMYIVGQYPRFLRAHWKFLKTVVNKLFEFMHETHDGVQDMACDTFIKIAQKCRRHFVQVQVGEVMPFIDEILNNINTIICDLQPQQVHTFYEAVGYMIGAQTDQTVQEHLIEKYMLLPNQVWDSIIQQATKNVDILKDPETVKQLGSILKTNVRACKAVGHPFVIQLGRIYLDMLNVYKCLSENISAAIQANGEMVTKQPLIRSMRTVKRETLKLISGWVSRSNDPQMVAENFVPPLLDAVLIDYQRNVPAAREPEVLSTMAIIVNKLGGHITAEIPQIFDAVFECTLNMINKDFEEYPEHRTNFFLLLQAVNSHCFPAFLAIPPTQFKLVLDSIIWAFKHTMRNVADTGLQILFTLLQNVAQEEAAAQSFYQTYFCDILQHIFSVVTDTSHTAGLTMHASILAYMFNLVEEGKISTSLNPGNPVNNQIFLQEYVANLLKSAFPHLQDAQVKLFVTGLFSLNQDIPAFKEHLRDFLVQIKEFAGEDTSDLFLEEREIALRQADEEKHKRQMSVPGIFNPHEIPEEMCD

| SMILES | inhibition [1] | Activity (HeLa [2]) | inhibition (Saccharomyces cerevisiae) | Activity (SW48) | Activity (A2780) | Activity (HeLa [3]) | Activity (HepG2) | Activity (MGC-803) | Activity (A549) | Activity (HGC-27) | Activity (HCT-116) | Activity (PANC-1) | Activity (Huh-7) | also measured |
| --- | --- | --- | --- | --- | --- | --- | --- | --- | --- | --- | --- | --- | --- | --- |
| [O-][S+](Cc1ccnc(Cl)c1)c1cc(C(F)(F)F)cc(C(F)(F)F)c1 (stereo not drawn) | inactive | inactive | – | – | – | – | – | – | – | – | – | – | – | – |
| FC(F)(F)c1cc(S/C=C/CBr)cc(C(F)(F)F)c1 | Active | inactive | Active | – | – | – | – | – | – | – | – | – | – | – |
| CC1=C(COCCC(C)(C)C)C(=O)N(Nc2ccc(C(F)(F)F)c(Cl)n2)C1=O | – | – | – | Active | Active | Active | Active | Active | Active | Active | Active | Active | Active | – |
| O=C(/C=C\n1cnc(-c2cc(C(F)(F)F)cc(C(F)(F)F)c2)n1)NNc1cnccn1 | – | – | inactive | Active | Active | Active | Active | Active | Active | Active | Active | Active | Active | inhibition (HeLa [4]): inactive; inhibition (Exportin-1): inactive; Activity (HeLa [5]): inactive |
| CC(C)CCNc1cc(C[S+]([O-])c2cc(C(F)(F)F)cc(C(F)(F)F)c2)on1 (stereo not drawn) | inactive | inactive | – | – | – | – | – | – | – | – | – | – | – | – |
| [O-][S+](Cc1cc(Br)no1)c1cc(C(F)(F)F)cc(C(F)(F)F)c1 (stereo not drawn) | inactive | inactive | – | – | – | – | – | – | – | – | – | – | – | – |
